Measurements as given in ChEMBL document CHEMBL1149626, “Aza analogues of equol: novel ligands for estrogen receptor beta” (Bioorg Med Chem, 2007).
Active and inactive are the calls of the source. The rule behind the calls is not given here.

What was measured:
[1] = molecular target: T1, Estrogen receptor (Homo sapiens) (UniProt P03372)
T1 sequence (whole entry): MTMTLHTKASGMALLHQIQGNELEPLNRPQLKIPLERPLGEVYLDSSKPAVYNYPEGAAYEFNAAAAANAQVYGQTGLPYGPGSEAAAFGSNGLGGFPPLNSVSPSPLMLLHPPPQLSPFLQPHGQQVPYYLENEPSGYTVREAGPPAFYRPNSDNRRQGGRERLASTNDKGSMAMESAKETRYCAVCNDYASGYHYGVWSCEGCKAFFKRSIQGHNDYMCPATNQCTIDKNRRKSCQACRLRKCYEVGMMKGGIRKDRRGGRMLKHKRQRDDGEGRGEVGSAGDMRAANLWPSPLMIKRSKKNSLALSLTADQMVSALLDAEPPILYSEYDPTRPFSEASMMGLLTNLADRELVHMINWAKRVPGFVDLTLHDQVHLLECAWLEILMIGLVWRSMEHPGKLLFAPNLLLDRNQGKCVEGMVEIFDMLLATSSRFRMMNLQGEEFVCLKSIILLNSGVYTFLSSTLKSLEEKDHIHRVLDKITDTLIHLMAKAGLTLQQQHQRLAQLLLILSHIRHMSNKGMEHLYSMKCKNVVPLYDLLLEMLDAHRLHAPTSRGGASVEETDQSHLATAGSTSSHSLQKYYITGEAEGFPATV
Description: (§1) Displacement of [3H]17beta-estradiol from recombinant human ERalpha

Estrogen receptor beta [2] = molecular target: T2, Estrogen receptor beta (Homo sapiens, UniProt Q92731)
Description: Displacement of [3H]17beta-estradiol from recombinant human ERbeta

Mus musculus [3] = assay: Effect on bone mineral density in ovariectomized kunming mouse at 4 umol/kg, sc qd for 4 weeks; format: functional
Mus musculus [4] = assay: Effect on uterine wet weight in ovariectomized kunming mouse at 4 umol/kg, sc qd for 4 weeks; format: functional
Homo sapiens [5] = species: Homo sapiens; assay: Selectivity for human ERbeta over human ERalpha
Estrogen receptor beta [6] = molecular target: T2, Estrogen receptor beta; assay: Agonist activity at human ERbeta expressed in yeast AH109 by yeast two hybrid assay; format: functional
Homo sapiens [7] = species: Homo sapiens; assay: Selectivity ratio of EC50 for human ERalpha to EC50 for human ERbeta
Estrogen receptor [8] = molecular target: T3, Estrogen receptor (Homo sapiens, UniProt P03372); assay: Agonist activity at human ERalpha expressed in yeast AH109 by yeast two hybrid assay; format: functional
T3 sequence (P03372 whole entry): T1 sequence (whole entry)

Estrogen receptor [9] = molecular target: T3, Estrogen receptor
Description: as §1

Estrogen receptor [10] = molecular target: T3, Estrogen receptor; assay: Antagonist activity at ERalpha expressed in yeast AH109 assessed as inhibition of 17-beta-estradiol induced alpha-galactosidase activity; format: functional

T2 sequence (Q92731 whole entry): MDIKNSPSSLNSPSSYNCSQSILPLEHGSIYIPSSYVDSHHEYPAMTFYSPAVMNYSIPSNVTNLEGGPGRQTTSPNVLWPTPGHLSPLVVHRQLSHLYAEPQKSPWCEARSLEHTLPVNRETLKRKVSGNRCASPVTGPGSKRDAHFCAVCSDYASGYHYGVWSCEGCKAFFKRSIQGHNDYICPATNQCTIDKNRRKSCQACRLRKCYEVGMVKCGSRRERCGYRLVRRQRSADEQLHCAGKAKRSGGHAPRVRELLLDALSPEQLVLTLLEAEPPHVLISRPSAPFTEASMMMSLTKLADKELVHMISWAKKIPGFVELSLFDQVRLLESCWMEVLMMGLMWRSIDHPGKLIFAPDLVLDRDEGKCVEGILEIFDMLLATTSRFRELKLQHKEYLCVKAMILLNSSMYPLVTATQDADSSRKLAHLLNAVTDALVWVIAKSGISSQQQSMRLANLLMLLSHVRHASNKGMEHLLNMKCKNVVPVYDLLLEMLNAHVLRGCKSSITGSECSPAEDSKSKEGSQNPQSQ

SMILES	Activity [1]	IC50 (Estrogen receptor beta [2])	Activity (Mus musculus [3])	Activity (Mus musculus [4])	Ratio IC50 (Homo sapiens [5])	EC50 (Estrogen receptor beta [6])	Ratio EC50 (Homo sapiens [7])	EC50 (Estrogen receptor [8])	IC50 (Estrogen receptor [9])	IC50 (Estrogen receptor [10])
Oc1ccc(C2Cc3ccc(O)cc3NC2=S)cc1 (stereo not drawn)	inactive	4900 nM	483 mg/cm3	38.7 mg						
O=C(C1CC1)N1CC(c2ccc(O)cc2)Cc2ccc(O)cc21 (stereo not drawn)	inactive	2950 nM								
CC(=O)N1CC(c2ccc(O)cc2)Cc2ccc(O)cc21 (stereo not drawn)			451 mg/cm3	29.1 mg						
O=C(c1ccc(OCCN2CCCCC2)cc1)c1c(-c2ccc(O)cc2)sc2cc(O)ccc12 [RALOXIFENE]			608 mg/cm3	69.5 mg						
CN1CC(c2ccc(O)cc2)Cc2ccc(O)cc21 (stereo not drawn)		220 nM	455 mg/cm3	31.8 mg	13.3	300 nM	50	15200 nM	2950 nM	
O=CN1CC(c2ccc(O)cc2)Cc2ccc(O)cc21 (stereo not drawn)			463 mg/cm3	36.4 mg						
Oc1ccc(C2Cc3ccc(O)cc3N(CC3CC3)C2)cc1 (stereo not drawn)		230 nM	461 mg/cm3	30.8 mg	7.1	6890 nM			1630 nM	5570 nM
CS(=O)(=O)N1CC(c2ccc(O)cc2)Cc2ccc(O)cc21 (stereo not drawn)		520 nM	475 mg/cm3	32.5 mg	61.5				32100 nM	
CCN1CC(c2ccc(O)cc2)Cc2ccc(O)cc21 (stereo not drawn)		83 nM	454 mg/cm3	31.7 mg	17	580 nM	41	24300 nM	1410 nM	
CCCN1CC(c2ccc(O)cc2)Cc2ccc(O)cc21 (stereo not drawn)		140 nM	439 mg/cm3	28.3 mg	17.9	4750 nM			2470 nM	2650 nM
Oc1ccc(-c2cnc3cc(O)ccc3c2)cc1			430 mg/cm3	33.1 mg		37500 nM		> 100000 nM		
Oc1ccc(C2CNc3cc(O)ccc3C2)cc1 (stereo not drawn)						9700 nM		> 100000 nM		
